Laboratory results: the NIST ThermoML archive (doi:10.1021/je0505265)
Numbers after ± are expanded uncertainties.

Details: Crystal; DTA

Normal melting temperature: 137.7 ± 0.5 °C
Structure (SMILES): CC[C@H]1OC(=O)[C@H](C)[C@@H](O[C@H]2C[C@@](C)(OC)[C@@H](O)[C@H](C)O2)[C@H](C)[C@@H](O[C@@H]2O[C@H](C)C[C@H](N(C)C)[C@H]2O)[C@](C)(O)C[C@@H](C)C(=O)[C@H](C)[C@@H](O)[C@]1(C)O.O.O [erythromycin A dihydrate]
